Experiment [1] deals with Diacylglycerol kinase alpha (Homo sapiens, UniProt P23743). Put plainly: In Vitro DGK Inhibition Assays. On the procedure: DGK α and ζ kinase use ATP to phosphorylate the substrate 1,2-dilauroyl-sn-glycerol (DLG, incorporated in the liposomes). ATP is converted to ADP as a result of this enzymatic reaction. After the kinase reaction, an ATP-depletion reagent is added to terminate the kinase reaction and deplete any remaining ATP, leaving only ADP. Second, a detection reagent is added to simultaneously convert ADP to ATP and allow the newly synthesized ATP to be converted to light using a coupled luciferase/luciferin reaction. A concentrated liposome solution was prepared in assay buffer without DTT and BSA: 2 mM of DLG in 21 mM of total liposome (2 mM DLG/8 mM PS/11 mM PC). […] The reactions were started by addition of DGK α and ζ kinases at 4 nM and 2 nM final concentrations, respectively. After 1 hour reaction, the amount of ADP formed was detected with the ADP-Glo kinase assay (Promega) according to the manufacturer instructions. Compounds were added in 11-points dose response, starting at […], 1:3 dilutions, with a final DMSO concentration of 2%. The multidrop combi was used as a liquid handler and luminescence was read with 0.5 s by the envision reader (PE).
Chain of Diacylglycerol kinase alpha (P23743 whole entry): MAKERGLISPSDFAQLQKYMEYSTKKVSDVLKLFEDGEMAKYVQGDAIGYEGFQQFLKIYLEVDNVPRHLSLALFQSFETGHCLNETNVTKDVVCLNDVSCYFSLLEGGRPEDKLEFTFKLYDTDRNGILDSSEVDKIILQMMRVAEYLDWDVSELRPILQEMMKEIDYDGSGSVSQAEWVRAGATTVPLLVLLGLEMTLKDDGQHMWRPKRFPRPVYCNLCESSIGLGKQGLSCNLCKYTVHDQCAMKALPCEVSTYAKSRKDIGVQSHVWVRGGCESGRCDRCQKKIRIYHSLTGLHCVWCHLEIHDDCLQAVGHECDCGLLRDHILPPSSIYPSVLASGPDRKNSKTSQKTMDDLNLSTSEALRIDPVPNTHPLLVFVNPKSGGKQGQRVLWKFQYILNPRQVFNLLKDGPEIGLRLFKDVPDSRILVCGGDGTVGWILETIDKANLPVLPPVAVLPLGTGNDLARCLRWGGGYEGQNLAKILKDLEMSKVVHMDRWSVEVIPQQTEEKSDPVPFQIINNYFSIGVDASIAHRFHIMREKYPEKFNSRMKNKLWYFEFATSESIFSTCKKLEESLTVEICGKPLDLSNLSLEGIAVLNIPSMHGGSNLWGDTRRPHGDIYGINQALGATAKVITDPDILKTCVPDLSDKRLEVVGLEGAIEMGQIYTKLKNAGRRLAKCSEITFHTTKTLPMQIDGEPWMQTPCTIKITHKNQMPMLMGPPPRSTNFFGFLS

Experiment [2] addresses Diacylglycerol kinase zeta (Homo sapiens, UniProt Q13574).

We go through two compounds from BindingDB's records for patent US20240368150 (Hoffmann-La Roche, 2024).

The structures appear in SMILES notation.

The IC50 is the concentration that gives 50% inhibition. A lower IC50 goes with higher potency.

Chain of Diacylglycerol kinase zeta (Q13574 as listed by the source): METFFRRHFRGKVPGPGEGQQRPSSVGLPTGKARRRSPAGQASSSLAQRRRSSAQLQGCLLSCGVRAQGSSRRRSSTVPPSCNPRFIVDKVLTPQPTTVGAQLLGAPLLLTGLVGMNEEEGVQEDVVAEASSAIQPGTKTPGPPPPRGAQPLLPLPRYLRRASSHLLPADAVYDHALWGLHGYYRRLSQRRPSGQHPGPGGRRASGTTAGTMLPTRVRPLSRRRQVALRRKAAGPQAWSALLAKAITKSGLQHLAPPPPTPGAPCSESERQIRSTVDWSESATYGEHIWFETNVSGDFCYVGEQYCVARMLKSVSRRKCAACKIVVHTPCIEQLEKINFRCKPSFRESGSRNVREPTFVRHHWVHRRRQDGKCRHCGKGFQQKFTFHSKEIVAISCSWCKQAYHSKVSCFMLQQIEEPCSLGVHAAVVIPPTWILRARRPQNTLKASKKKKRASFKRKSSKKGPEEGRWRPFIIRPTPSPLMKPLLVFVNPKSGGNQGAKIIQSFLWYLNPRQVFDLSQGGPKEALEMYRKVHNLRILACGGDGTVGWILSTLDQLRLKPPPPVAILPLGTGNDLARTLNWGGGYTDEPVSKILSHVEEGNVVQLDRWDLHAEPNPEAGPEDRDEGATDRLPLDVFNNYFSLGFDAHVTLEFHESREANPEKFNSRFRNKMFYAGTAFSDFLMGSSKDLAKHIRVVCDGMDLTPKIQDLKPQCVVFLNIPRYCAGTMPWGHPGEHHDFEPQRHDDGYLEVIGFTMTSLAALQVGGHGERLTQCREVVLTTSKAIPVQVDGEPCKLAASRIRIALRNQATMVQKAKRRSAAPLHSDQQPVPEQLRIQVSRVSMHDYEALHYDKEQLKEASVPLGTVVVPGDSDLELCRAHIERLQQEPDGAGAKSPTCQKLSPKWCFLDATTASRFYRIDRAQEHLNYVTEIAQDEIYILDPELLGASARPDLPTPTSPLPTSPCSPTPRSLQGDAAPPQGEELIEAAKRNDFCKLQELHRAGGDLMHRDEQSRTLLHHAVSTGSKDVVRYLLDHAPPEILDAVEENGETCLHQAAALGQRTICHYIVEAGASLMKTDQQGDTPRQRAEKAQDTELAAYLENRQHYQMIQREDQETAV

With `COC1(c2nnc(-c3ccc4c(c3)N(Cc3ccc(Cl)cc3)C(=O)[C@@H](N)CS4(=O)=O)o2)CCC(F)(F)CC1` [US20240368150, Example 378], the IC50 in experiment [1] worked out at 4.06 µM; in experiment [2] it was 1.44 µM.

Turning to `CN(C)C(=O)c1nnc(-c2cc3c(cc2F)S(=O)(=O)C[C@H](N)C(=O)N3Cc2ccc(Cl)cc2)o1` [US20240368150, Example 87], the IC50 in experiment [1] came to 3.06 µM; in experiment [2] it was 3.67 µM.
